# Reference: ChEMBL document CHEMBL1201862, “PubChem BioAssay data set” (2004)
#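 How tested: cells in 96-well plates exposed to compound for 48 hours at five concentrations. GI50 = concentration required for 50% inhibition of growth.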 Active and inactive are the calls of the source. No stated cut-off is given here; in the data, active = GI50 up to about 1.1 µM and inactive = higher. Non-standard residues stand in square brackets, D forms with d. Residues, ends and D or L forms follow the SMILES beside them. ξ: configuration not given here. Pen = CC(C)(S)[C@H](N)C(=O)O; ξL = CC(C)CC(N)C(=O)O
# Assays:
# Test in all cases: DTP human tumour cell line panel, 48 h
# M19-MEL = test system: M19-MEL
# NCI-H23 = test system: NCI-H23
# RPMI-8226 = test system: RPMI-8226
# MCF7 = test system: MCF7
# KM-20L2 = test system: KM-20L2
# DLD-1 = test system: DLD-1
# A498 = test system: A498
# M14 = test system: M14
# ACHN = test system: ACHN
# SR = test system: SR
# CAKI-1 = test system: CAKI-1
# 786-0 = test system: 786-0
# TK-10 = test system: TK-10
Compound,GI50 (M19-MEL),GI50 (NCI-H23),GI50 (RPMI-8226),GI50 (MCF7),GI50 (KM-20L2),GI50 (DLD-1),GI50 (A498),GI50 (M14),GI50 (ACHN),GI50 (SR),GI50 (CAKI-1),GI50 (786-0),GI50 (TK-10)
CN(C)CCNC(=O)c1cc(Cl)cc2cc3ccccc3nc12,1.3 µM (inactive),1.39 µM (inactive),0.721 µM (active),0.757 µM (active),0.422 µM (active),0.652 µM (active),0.179 µM (active),,,,,,
O=C(OCc1ccccc1)OOC(=O)OCc1ccccc1,> 100 µM (inactive),> 100 µM (inactive),> 100 µM (inactive),,> 100 µM (inactive),> 100 µM (inactive),> 100 µM (inactive),> 100 µM (inactive),> 100 µM (inactive),> 100 µM (inactive),> 100 µM (inactive),,
COC(=O)C(=O)OC1(C(C)=O)CC2(c3ccccc3)OC1(c1ccccc1)c1ccccc12 (centres undefined),16.9 µM (inactive),17.2 µM (inactive),20.8 µM (inactive),,15.6 µM (inactive),18.6 µM (inactive),18.6 µM (inactive),17.9 µM (inactive),,28.1 µM (inactive),17.9 µM (inactive),13.5 µM (inactive),29.4 µM (inactive)
N/N=C(\C(=O)Nc1c(Cl)cc([N+](=O)[O-])cc1Cl)C(c1cnc2ccc([N+](=O)[O-])cc2n1)[N+](=O)[O-] (centres undefined),> 100 µM (inactive),> 100 µM (inactive),42.8 µM (inactive),,> 100 µM (inactive),> 100 µM (inactive),> 100 µM (inactive),,> 100 µM (inactive),> 100 µM (inactive),66.1 µM (inactive),,> 100 µM (inactive)
CCCCCCSc1nc(N)nc2nc[nH]c12,47.1 µM (inactive),31.8 µM (inactive),60.1 µM (inactive),30.5 µM (inactive),39.7 µM (inactive),33.7 µM (inactive),26.9 µM (inactive),,,,,,
c1ccc2c(c1)SCCc1cn[nH]c1-2,> 100 µM (inactive),> 100 µM (inactive),,> 100 µM (inactive),> 100 µM (inactive),> 100 µM (inactive),> 100 µM (inactive),,,,> 100 µM (inactive),,
O=C1C2C3C=C4c5ccccc5N(c5ccccc5)C4(C2C(=O)N1Cc1ccccc1)C1C(=O)N(Cc2ccccc2)C(=O)C31 (centres undefined),70.3 µM (inactive),> 100 µM (inactive),,,> 100 µM (inactive),> 100 µM (inactive),> 100 µM (inactive),> 10 µM (inactive),> 100 µM (inactive),> 100 µM (inactive),> 10 µM (inactive),> 100 µM (inactive),> 100 µM (inactive)
C=CC1(c2ccccc2Cl)N/C(=C/OCC)CO1 (centres undefined),> 100 µM (inactive),> 100 µM (inactive),24.7 µM (inactive),,> 100 µM (inactive),33.5 µM (inactive),> 100 µM (inactive),> 100 µM (inactive),> 100 µM (inactive),> 100 µM (inactive),> 100 µM (inactive),51.5 µM (inactive),> 100 µM (inactive)
COC(=O)C(/C(=N/NC(N)=S)C(=O)Nc1ccccc1[N+](=O)[O-])c1cnc2ccccc2n1 (centres undefined),> 100 µM (inactive),> 100 µM (inactive),> 100 µM (inactive),,> 100 µM (inactive),> 100 µM (inactive),> 100 µM (inactive),> 100 µM (inactive),> 100 µM (inactive),> 100 µM (inactive),> 100 µM (inactive),> 100 µM (inactive),> 100 µM (inactive)
CSCC[C@H](NC(=O)C(CC(C)C)NC(=O)[C@H](Cc1c[nH]cn1)NC(=O)CNC(=O)[C@@H](NC(=O)[C@@H](C)NC(=O)[C@H](Cc1c[nH]c2ccccc12)NC(=O)[C@H](CCC(N)=O)NC(=O)[C@@H](N)CC(N)=O)C(C)(C)SC)C(N)=O (some centres undefined) (H-NQW[dA][Pen](Me)GH[ξL]M-NH2),> 100 µM (inactive),> 100 µM (inactive),,> 100 µM (inactive),> 100 µM (inactive),> 100 µM (inactive),> 100 µM (inactive),,,,> 100 µM (inactive),,
